# Where “and” joins values, the source holds several entries; their conditions need not be identical. Identical values can stand only once. Like-named read-outs stand apart in the source and are kept apart here.
# Test system: patients with ALS
# [1] = 50 mg, No Riluzole Use, through Week 28
# [2] = 50 mg, Riluzole Use, through Week 28
# [3] = 50 mg, double-blind treatment period
# [4] = 50 mg, through the end of the study
# 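Note: adverse event data gathered at every clinic visit and phone contact, after first study drug dose, in a blinded trial, counts of affected subjects.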
smiles,measurement,setting,value
"CCCN[C@@H]1CCc2nc(N)sc2C1 [dexpramipexole, (6R)-2-amino-4,5,6,7-tetrahydro-6-(propylamino)benzothiazole]",subjects with increase from baseline in QTcF >30 msec,50 mg,Four
same,subjects with decrease in weight >7% from baseline,"50 mg and 300 mg groups together, double-blind period",30 subjects
same,AE: Anxiety,[1],1 (4%) N (%)
same,AE: Constipation,[1],4 (17%) N (%)
same,AE: Depression,[1],4 (17%) N (%)
same,AE: Dry mouth,[1],0 N (%)
same,AE: Dysarthria,[1],1 (4%) N (%)
same,AE: Dyspnoea,[1],3 (13%) N (%)
same,AE: Fall,[1],6 (26%) N (%)
same,AE: Headache,[1],1 (4%) N (%)
same,AE: Muscular weakness,[1],7 (30%) N (%)
same,AE: Nausea,[1],2 (9%) N (%)
same,AE: Oedema peripheral,[1],4 (17%) N (%)
same,AE: Pharyngolaryngeal pain,[1],1 (4%) N (%)
same,AE: Sinusitis,[1],1 (4%) N (%)
same,AE: Upper respiratory tract infection,[1],2 (9%) N (%)
same,AE: Urinary tract infection,[1],1 (4%) N (%)
same,AE: Anxiety,[2],1 (4%) N (%)
same,AE: Constipation,[2],4 (16%) N (%)
same,AE: Depression,[2],2 (8%) N (%)
same,AE: Dry mouth,[2],1 (4%) N (%)
same,AE: Dysarthria,[2],3 (12%) N (%)
same,AE: Dyspnoea,[2],2 (8%) N (%)
same,AE: Fall,[2],5 (20%) N (%)
same,AE: Headache,[2],2 (8%) N (%)
same,AE: Muscular weakness,[2],6 (24%) N (%)
same,AE: Nausea,[2],2 (8%) N (%)
same,AE: Oedema peripheral,[2],3 (12%) N (%)
same,AE: Pharyngolaryngeal pain,[2],3 (12%) N (%)
same,AE: Sinusitis,[2],1 (4%) N (%)
same,AE: Upper respiratory tract infection,[2],3 (12%) N (%)
same,AE: Urinary tract infection,[2],2 (8%) N (%)
same,incidence of ECGs with QTcB increased >30 msec from baseline,"50 mg, any post-baseline visit",17%
same,subjects with QTcF interval >450 msec,"50 mg, any post-baseline visit",Two
same,AEs related to ALS as assessed by the Investigator,[3],85%
same,subjects with prolonged QTcB,[3],6 subjects
same,subjects with serum chemistry abnormalities of potential clinical significance,[3],4 subjects
same,ALS-related TEAE: Affect liability,"50 mg, through Week 28",2 (4%) N (%)
same,ALS-related TEAE: Arthralgia,"50 mg, through Week 28",1 (2%) N (%)
same,ALS-related TEAE: Choking,"50 mg, through Week 28",2 (4%) N (%)
same,ALS-related TEAE: Constipation,"50 mg, through Week 28",4 (8%) N (%)
same,ALS-related TEAE: Contusion,"50 mg, through Week 28",1 (2%) N (%)
same,ALS-related TEAE: Dehydration,"50 mg, through Week 28",0 N (%)
same,ALS-related TEAE: Depression,"50 mg, through Week 28",1 (2%) N (%)
same,ALS-related TEAE: Disease progression,"50 mg, through Week 28",2 (4%) N (%)
same,ALS-related TEAE: Dysarthria,"50 mg, through Week 28",4 (8%) N (%)
same,ALS-related TEAE: Dysphagia,"50 mg, through Week 28",5 (10%) N (%)
same,ALS-related TEAE: Dysphasia,"50 mg, through Week 28",1 (2%) N (%)
same,ALS-related TEAE: Dyspnoea,"50 mg, through Week 28",4 (8%) N (%)
same,ALS-related TEAE: Dyspnoea exertional,"50 mg, through Week 28",0 N (%)
same,ALS-related TEAE: Fall,"50 mg, through Week 28",10 (21%) N (%)
same,ALS-related TEAE: Fatigue,"50 mg, through Week 28",3 (6%) N (%)
same,ALS-related TEAE: Gastrointestinal Disorders,"50 mg, through Week 28",16 (33%) N (%)
same,ALS-related TEAE: General Disorders and Administration Site Conditions,"50 mg, through Week 28",8 (17%) N (%)
same,ALS-related TEAE: Increased upper airway secretion,"50 mg, through Week 28",1 (2%) N (%)
same,"ALS-related TEAE: Injury, Poisoning and Procedural Complications","50 mg, through Week 28",10 (21%) N (%)
same,ALS-related TEAE: Investigations,"50 mg, through Week 28",3 (6%) N (%)
same,ALS-related TEAE: Metabolism and Nutrition Disorders,"50 mg, through Week 28",1 (2%) N (%)
same,ALS-related TEAE: Muscle contractions involuntary,"50 mg, through Week 28",3 (6%) N (%)
same,ALS-related TEAE: Muscle spasticity,"50 mg, through Week 28",5 (10%) N (%)
same,ALS-related TEAE: Muscle twitching,"50 mg, through Week 28",1 (2%) N (%)
same,ALS-related TEAE: Muscular weakness,"50 mg, through Week 28",12 (25%) N (%)
same,ALS-related TEAE: Musculoskeletal and Connective Tissue Disorders,"50 mg, through Week 28",19 (40%) N (%)
same,ALS-related TEAE: Musculoskeletal pain,"50 mg, through Week 28",1 (2%) N (%)
same,ALS-related TEAE: Myalgia,"50 mg, through Week 28",2 (4%) N (%)
same,ALS-related TEAE: Neck pain,"50 mg, through Week 28",1 (2%) N (%)
same,ALS-related TEAE: Nervous System Disorders,"50 mg, through Week 28",11 (23%) N (%)
same,ALS-related TEAE: Oedema peripheral,"50 mg, through Week 28",3 (6%) N (%)
same,ALS-related TEAE: Pain in extremity,"50 mg, through Week 28",2 (4%) N (%)
same,ALS-related TEAE: Psychiatric Disorders,"50 mg, through Week 28",2 (4%) N (%)
same,ALS-related TEAE: Respiratory failure,"50 mg, through Week 28",4 (8%) N (%)
same,"ALS-related TEAE: Respiratory, Thoracic and Mediastinal Disorders","50 mg, through Week 28",11 (23%) N (%)
same,ALS-related TEAE: Salivary hypersecretion,"50 mg, through Week 28",8 (17%) N (%)
same,ALS-related TEAE: Vital capacity decreased,"50 mg, through Week 28",2 (4%) N (%)
same,ALS-related TEAE: Weight decreased,"50 mg, through Week 28",0 N (%)
same,Number of TEAEs,"50 mg, through Week 28",277
same,Number of serious TEAEs,"50 mg, through Week 28",15
same,Number of serious treatment-related TEAE,"50 mg, through Week 28",1
same,Number of severe TEAEs,"50 mg, through Week 28",17
same,Number of treatment-related TEAEs,"50 mg, through Week 28",35
same,TEAE: Anxiety,"50 mg, through Week 28",2 (4%) N (%)
same,TEAE: Arthralgia,"50 mg, through Week 28",2 (4%) N (%)
same,TEAE: Cardiac Disorders,"50 mg, through Week 28",2 (4%) N (%)
same,TEAE: Constipation,"50 mg, through Week 28",8 (17%) N (%)
same,TEAE: Cough,"50 mg, through Week 28",1 (2%) N (%)
same,TEAE: Dehydration,"50 mg, through Week 28",1 (2%) N (%)
same,TEAE: Depression,"50 mg, through Week 28",6 (13%) N (%)
same,TEAE: Dizziness,"50 mg, through Week 28",0 N (%)
same,TEAE: Dry mouth,"50 mg, through Week 28",2 N (%) and 1 (2%) N (%)
same,TEAE: Dysarthria,"50 mg, through Week 28",4 (8%) N (%)
same,TEAE: Dysphagia,"50 mg, through Week 28",5 (10%) N (%)
same,TEAE: Dyspnoea,"50 mg, through Week 28",5 (10%) N (%)
same,TEAE: Fall,"50 mg, through Week 28",11 (23%) N (%)
same,TEAE: Fatigue,"50 mg, through Week 28",3 (6%) N (%)
same,TEAE: Gastrointestinal Disorders,"50 mg, through Week 28",21 (44%) N (%)
same,TEAE: General Disorders and Administration Site Conditions,"50 mg, through Week 28",14 (29%) N (%)
same,TEAE: Headache,"50 mg, through Week 28",3 (6%) N (%)
same,TEAE: Hyperglycaemia,"50 mg, through Week 28",0 N (%)
same,TEAE: Infections and Infestations,"50 mg, through Week 28",21 (44%) N (%)
same,"TEAE: Injury, Poisoning and Procedural Complication","50 mg, through Week 28",15 (31%) N (%)
same,TEAE: Insomnia,"50 mg, through Week 28",0 N (%)
same,TEAE: Metabolism and Nutrition Disorders,"50 mg, through Week 28",6 (13%) N (%)
same,TEAE: Muscle contractions involuntary,"50 mg, through Week 28",3 (6%) N (%)
same,TEAE: Muscle spasticity,"50 mg, through Week 28",5 (10%) N (%)
same,TEAE: Musculoskeletal and Connective Tissue Disorders,"50 mg, through Week 28",22 (46%) N (%)
same,TEAE: Musculoskeletal pain,"50 mg, through Week 28",2 (4%) N (%)
same,TEAE: Nausea,"50 mg, through Week 28",4 (8%) N (%)
same,TEAE: Neck pain,"50 mg, through Week 28",1 (2%) N (%)
same,TEAE: Nervous System Disorders,"50 mg, through Week 28",16 (33%) N (%)
same,TEAE: Pharyngolaryngeal pain,"50 mg, through Week 28",4 (8%) N (%)
same,TEAE: Pneumonia,"50 mg, through Week 28",3 (6%) N (%)
same,TEAE: Pruritus,"50 mg, through Week 28",3 (6%) N (%)
same,TEAE: Psychiatric Disorders,"50 mg, through Week 28",9 (19%) N (%)
same,TEAE: Rash,"50 mg, through Week 28",2 (4%) N (%)
same,TEAE: Respiratory failure,"50 mg, through Week 28",4 (8%) N (%)
same,"TEAE: Respiratory, Thoracic and Mediastinal Disorders","50 mg, through Week 28",17 (35%) N (%)
same,TEAE: Salivary hypersecretion,"50 mg, through Week 28",8 (17%) N (%)
same,TEAE: Sinusitis,"50 mg, through Week 28",2 (4%) N (%)
same,TEAE: Skin and Subcutaneous Tissue Disorders,"50 mg, through Week 28",14 (29%) N (%)
same,TEAE: Tachycardia,"50 mg, through Week 28",1 (2%) N (%)
same,TEAE: Upper respiratory tract infection,"50 mg, through Week 28",5 (10%) N (%)
same,TEAE: Urinary tract infection,"50 mg, through Week 28",3 (6%) N (%)
same,TEAE: Vomiting,"50 mg, through Week 28",3 (6%) N (%)
same,serious TEAE: Acute myocardial infarction,"50 mg, through Week 28",1 (2%) N (%)
same,serious TEAE: Atrial fibrillation,"50 mg, through Week 28",0 N (%)
same,serious TEAE: Blood and Lymphatic System Disorders,"50 mg, through Week 28",0 N (%)
same,serious TEAE: Cardiac Disorders,"50 mg, through Week 28",1 (2%) N (%)
same,serious TEAE: Cardiac failure congestive,"50 mg, through Week 28",1 (2%) N (%)
same,serious TEAE: Cholecystitis acute,"50 mg, through Week 28",0 N (%)
same,serious TEAE: Concussion,"50 mg, through Week 28",0 N (%)
same,serious TEAE: Disease progression,"50 mg, through Week 28",1 (2%) N (%)
same,serious TEAE: Dyspnoea,"50 mg, through Week 28",1 (2%) N (%)
same,serious TEAE: Fall,"50 mg, through Week 28",0 N (%)
same,serious TEAE: Gastrointestinal Disorders,"50 mg, through Week 28",1 (2%) N (%)
same,serious TEAE: General Disorders and Administration Site Conditions,"50 mg, through Week 28",2 (4%) N (%)
same,serious TEAE: Hepatobiliary Disorders,"50 mg, through Week 28",0 N (%)
same,serious TEAE: Ileus,"50 mg, through Week 28",1 (2%) N (%)
same,serious TEAE: Infections and Infestations,"50 mg, through Week 28",3 (6%) N (%)
same,"serious TEAE: Injury, Poisoning and Procedural Complications","50 mg, through Week 28",0 N (%)
same,serious TEAE: Neutropenia,"50 mg, through Week 28",0 N (%)
same,serious TEAE: Pneumonia,"50 mg, through Week 28",1 (2%) N (%)
same,serious TEAE: Pneumonia aspiration,"50 mg, through Week 28",0 N (%)
same,serious TEAE: Pneumonia bacterial,"50 mg, through Week 28",1 (2%) N (%)
same,serious TEAE: Pulmonary embolism,"50 mg, through Week 28",1 (2%) N (%)
same,serious TEAE: Respiratory distress,"50 mg, through Week 28",1 (2%) N (%)
same,serious TEAE: Respiratory failure,"50 mg, through Week 28",4 (8%) N (%)
same,"serious TEAE: Respiratory, Thoracic and Mediastinal Disorders","50 mg, through Week 28",5 (10%) N (%)
same,serious TEAE: Subdural haematoma,"50 mg, through Week 28",0 N (%)
same,serious TEAE: Sudden death,"50 mg, through Week 28",1 (2%) N (%)
same,serious TEAE: Viral infection,"50 mg, through Week 28",1 (2%) N (%)
same,≧1 TEAE with an outcome of death,"50 mg, through Week 28",7 N (%) and 7 (15%) N (%)
same,≧1 serious TEAE (including death),"50 mg, through Week 28",11 N (%) and 11 (23%) N (%)
same,≧1 serious treatment-related TEAE,"50 mg, through Week 28",1 (2%) N (%)
same,≧1 severe TEAE,"50 mg, through Week 28",12 (25%) N (%) and 12 N (%)
same,Number of TEAEs,[4],333
same,Number of serious TEAEs,[4],18
same,Number of serious treatment-related TEAEs,[4],1
same,Number of severe TEAEs,[4],20
same,Number of treatment-related TEAEs,[4],39
same,Subjects with a TEAE with action taken of study drug discontinued,[4],2 N (%) and 2 (4%) N (%)
same,subjects with TEAEs with an outcome of death (b230 count),[4],7 subjects
same,≧1 TEAE with an outcome of death,[4],7 N (%) and 7 (15%) N (%)
same,≧1 serious TEAE (including death),[4],14 N (%) and 14 (29%) N (%)
